Measurements reported in patent publication US20110039721A1, “METHOD FOR PREDICTION ABOUT CARCINOGENICITY OF SUBSTANCE IN RODENT” (Chemicals Evaluation and Research Institute, priority 2007, published 2011).
Counter-ions that a name gives are not always drawn.

Tests used:
liver = conditions: in vivo; cited from earlier work
rodent = conditions: in vivo; cited from earlier work
[1] = system: mRNA expressed from the genes (A) to (D) in rat liver; experiment: Behavior of genes (mRNA expression level, oligo-DNA microarray) in rat liver after 28-day oral administration; format: in vivo
How it was run: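 Oral gavage, once daily × 28 days; male F344 SPF rats, 5 wk, n=4/group; vehicle controls given equal solvent volume. Liver excised day 28, total RNA purified. Significance: ≥1.5× or ≤1/1.5 of vehicle, direction concordant with other carcinogens.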

[2] = (C), Unigene Rn.120914, defined direction +, rat liver, oral once daily 28 days

SMILES: CN(C)CCN(Cc1cccs1)c1ccccn1 [TS053, Methapyrilene HCl]
- Liver carcinogenicity (liver): Cr+
- Carcinogenicity (rodent): C+

SMILES: CC(N)=O [TS067, Acetamide]
- Behavior of gene caused by administration of chemical substance, Gene No. 4846 ([1]; (A), Unigene Rn.144554, defined direction +, rat liver, oral once daily 28 days): +
- Behavior of gene caused by administration of chemical substance, Gene No. 4218 ([1]; (A), Unigene Rn.167075, defined direction +, rat liver, oral once daily 28 days, significant = 1.5 times or more or 1/1.5 or less of control): −
- Behavior of gene caused by administration of chemical substance, Gene No. 2026 ([1]; (A), Unigene Rn.167075, defined direction −, rat liver, oral once daily 28 days): +
- Behavior of gene caused by administration of chemical substance, Gene No. 6182 ([1]; (A), Unigene Rn.5834, defined direction +, rat liver, oral once daily 28 days): −
- Behavior of gene caused by administration of chemical substance, Gene No. 5600 ([1]; (A), Unigene Rn.9836, defined direction +, rat liver, oral once daily 28 days): −
- Behavior of gene caused by administration of chemical substance, Gene No. 1494 ([1]; (B), Unigene Rn.1430, defined direction −, rat liver, oral once daily 28 days): −
- Behavior of gene caused by administration of chemical substance, Gene No. 2045 ([1]; (B), Unigene Rn.19329, defined direction +, rat liver, oral once daily 28 days): −
- Behavior of gene caused by administration of chemical substance, Gene No. 2203 ([1]; (B), Unigene Rn.21240, defined direction +, rat liver, oral once daily 28 days): −
- Behavior of gene caused by administration of chemical substance, Gene No. 533 ([1]; (C), Unigene Rn.106184, defined direction +, rat liver, oral once daily 28 days): +
- Behavior of gene caused by administration of chemical substance, Gene No. 725 ([1]; (C), Unigene Rn.108075, defined direction −, rat liver, oral once daily 28 days): −
- Behavior of gene caused by administration of chemical substance, Gene No. 1163 ([1]; (C), Unigene Rn.11766, defined direction +, rat liver, oral once daily 28 days): −
- Behavior of gene caused by administration of chemical substance, Gene No. 4973 ([1]; (C), Unigene Rn.118529, defined direction −, rat liver, oral once daily 28 days): −
- Behavior of gene caused by administration of chemical substance, Gene No. 4095 ([1]; (C), Unigene Rn.119024, defined direction −, rat liver, oral once daily 28 days): −
- Behavior of gene caused by administration of chemical substance, Gene No. 1334 [1, 2]: −
- Behavior of gene caused by administration of chemical substance, Gene No. 6620 [1, 2]: −
- Behavior of gene caused by administration of chemical substance, Gene No. 6303 ([1]; (C), Unigene Rn.123063, defined direction −, rat liver, oral once daily 28 days): +
- Behavior of gene caused by administration of chemical substance, Gene No. 5878 ([1]; (C), Unigene Rn.143213, defined direction −, rat liver, oral once daily 28 days): −
- Behavior of gene caused by administration of chemical substance, Gene No. 1131 ([1]; (C), Unigene Rn.144946, defined direction −, rat liver, oral once daily 28 days): −
- Behavior of gene caused by administration of chemical substance, Gene No. 1562 ([1]; (C), Unigene Rn.14744, defined direction −, rat liver, oral once daily 28 days): −
- Behavior of gene caused by administration of chemical substance, Gene No. 1741 ([1]; (C), Unigene Rn.1647, defined direction −, rat liver, oral once daily 28 days): −
- Behavior of gene caused by administration of chemical substance, Gene No. 893 ([1]; (C), Unigene Rn.164817, defined direction +, rat liver, oral once daily 28 days): −
- Behavior of gene caused by administration of chemical substance, Gene No. 6026 ([1]; (C), Unigene Rn.167685, defined direction −, rat liver, oral once daily 28 days): −
- Behavior of gene caused by administration of chemical substance, Gene No. 154 ([1]; (C), Unigene Rn.185941, defined direction −, rat liver, oral once daily 28 days): +
- Behavior of gene caused by administration of chemical substance, Gene No. 1993 ([1]; (C), Unigene Rn.18728, defined direction −, rat liver, oral once daily 28 days): −
- Behavior of gene caused by administration of chemical substance, Gene No. 813 ([1]; (C), Unigene Rn.201760, defined direction +, rat liver, oral once daily 28 days): −
- Behavior of gene caused by administration of chemical substance, Gene No. 2494 ([1]; (C), Unigene Rn.23969, defined direction +, rat liver, oral once daily 28 days): −
- Behavior of gene caused by administration of chemical substance, Gene No. 2546 ([1]; (C), Unigene Rn.24561, defined direction −, rat liver, oral once daily 28 days): −
- Behavior of gene caused by administration of chemical substance, Gene No. 3776 ([1]; (C), Unigene Rn.43232, defined direction −, rat liver, oral once daily 28 days): −
- Behavior of gene caused by administration of chemical substance, Gene No. 3929 ([1]; (C), Unigene Rn.4620, defined direction +, rat liver, oral once daily 28 days): −
- Behavior of gene caused by administration of chemical substance, Gene No. 1119 ([1]; (C), Unigene Rn.9757, defined direction +, rat liver, oral once daily 28 days): −
- Behavior of gene caused by administration of chemical substance, Gene No. 6742 ([1]; (C), Unigene Rn.9779, defined direction +, rat liver, oral once daily 28 days): −
- Behavior of gene caused by administration of chemical substance, Gene No. 5634 ([1]; (C), Unigene Rn.9862, defined direction −, rat liver, oral once daily 28 days): −
- Behavior of gene caused by administration of chemical substance, Gene No. 5726 ([1]; (D), Unigene Rn.9939, defined direction −, rat liver, oral once daily 28 days): −
- Carcinogenicity (rodent): C+

SMILES: Cc1ccccc1[N+](=O)[O-] [TS087, o-Nitrotoluene]
- Behavior of gene caused by administration of chemical substance ([1]; Gene No. 154, Rn.185941, group (C)): −
- Behavior of gene caused by administration of chemical substance ([1]; Gene No. 533, Rn.106184, group (C)): +
- Behavior of gene caused by administration of chemical substance ([1]; Gene No. 725, Rn.108075, group (C)): +
- Behavior of gene caused by administration of chemical substance ([1]; Gene No. 813, Rn.201760, group (C)): −
- Behavior of gene caused by administration of chemical substance ([1]; Gene No. 893, Rn.164817, group (C)): −
- Behavior of gene caused by administration of chemical substance ([1]; Gene No. 1119, Rn.9757, group (C)): −
- Behavior of gene caused by administration of chemical substance ([1]; Gene No. 1131, Rn.144946, group (C)): −
- Behavior of gene caused by administration of chemical substance ([1]; Gene No. 1163, Rn.11766, group (C)): −
- Behavior of gene caused by administration of chemical substance ([1]; Gene No. 1334, Rn.120914, group (C)): −
- Behavior of gene caused by administration of chemical substance ([1]; Gene No. 1494, Rn.1430, group (B)): +
- Behavior of gene caused by administration of chemical substance ([1]; Gene No. 1562, Rn.14744, group (C)): −
- Behavior of gene caused by administration of chemical substance ([1]; Gene No. 1741, Rn.1647, group (C)): −
- Behavior of gene caused by administration of chemical substance ([1]; Gene No. 1993, Rn.18728, group (C)): −
- Behavior of gene caused by administration of chemical substance ([1]; Gene No. 2026, Rn.167075, group (A)): +
- Behavior of gene caused by administration of chemical substance ([1]; Gene No. 2045, Rn.19329, group (B)): −
- Behavior of gene caused by administration of chemical substance ([1]; Gene No. 2203, Rn.21240, group (B)): −
- Behavior of gene caused by administration of chemical substance ([1]; Gene No. 2494, Rn.23969, group (C)): −
- Behavior of gene caused by administration of chemical substance ([1]; Gene No. 2546, Rn.24561, group (C)): −
- Behavior of gene caused by administration of chemical substance ([1]; Gene No. 3776, Rn.43232, group (C)): −
- Behavior of gene caused by administration of chemical substance ([1]; Gene No. 3929, Rn.4620, group (C)): −
- Behavior of gene caused by administration of chemical substance ([1]; Gene No. 4095, Rn.119024, group (C)): −
- Behavior of gene caused by administration of chemical substance ([1]; Gene No. 4218, Rn.167075, group (A)): +
- Behavior of gene caused by administration of chemical substance ([1]; Gene No. 4846, Rn.144554, group (A)): +
- Behavior of gene caused by administration of chemical substance ([1]; Gene No. 4973, Rn.118529, group (C)): +
- Behavior of gene caused by administration of chemical substance ([1]; Gene No. 5600, Rn.9836, group (A)): +
- Behavior of gene caused by administration of chemical substance ([1]; Gene No. 5634, Rn.9862, group (C)): −
- Behavior of gene caused by administration of chemical substance ([1]; Gene No. 5726, Rn.9939, group (D)): −
- Behavior of gene caused by administration of chemical substance ([1]; Gene No. 5878, Rn.143213, group (C)): −
- Behavior of gene caused by administration of chemical substance ([1]; Gene No. 6026, Rn.167685, group (C)): −
- Behavior of gene caused by administration of chemical substance ([1]; Gene No. 6182, Rn.5834, group (A)): +
- Behavior of gene caused by administration of chemical substance ([1]; Gene No. 6303, Rn.123063, group (C)): +
- Behavior of gene caused by administration of chemical substance ([1]; Gene No. 6620, Rn.120914, group (C)): −
- Behavior of gene caused by administration of chemical substance ([1]; Gene No. 6742, Rn.9779, group (C)): −
- Carcinogenicity (rodent): C+
